Experimental data: patent US6555547B1, “Method for treating a patient with neoplasia by treatment with a vinca alkaloid derivative” (Cell Pathways, Inc., priority 2000, dated 2003)

Experiments:
[1] = system: PKG activity in HCT116 colon cancer cells; experiment: PKG assay on lysates of drug-treated HCT116 cells; assay type: cell-based
From the text: To test the effect of cGMP-specific PDE inhibition on neoplasia containing the β-catenin mutation, HCT116 colon cancer cells were employed. HCT116 is known to contain the β-catenin mutation, but is known not to contain the APC mutation.
The same procedure is used to grow the HCT116 cells as is used in the SW480 procedure described above. In this experiment, only exisulind and controls were used.

[2] = system: β-catenin and PKG in SW480 cells; experiment: Western blot of β-catenin and PKG in SW480 cells; assay type: cell-based, human; conditions: SW480, 48 hours
Procedure: SW480 cells treated with exisulind as described previously are harvested from the microfuge tubes by rinsing once with ice-cold PBS. The cells are lysed by modified RIPA buffer for 15 minutes with agitation. The cell lysate is spun down in a cold room. The supernatants are transferred to fresh microcentrifuge tubes immediately after spinning. BioRad DC Protein Assay (Temecula, Calif.) is performed to determine the protein concentrations in samples. The samples are normalized for protein concentration, as described above.
50 μg of each sample is loaded onto a 10% SDS gel. SDS-PAGE is performed, and the proteins then are transferred to a nitrocellulose membrane. The blotted nitrocellulose membrane is blocked in freshly prepared TBST containing 5% nonfat dry milk for one hour at room temperature with constant agitation.
A goat-anti-PKG primary antibody is diluted to the recommended concentration/dilution in fresh TBST/5% nonfat dry milk. The nitrocellulose membrane is placed in the primary antibody solution and incubated one hour at room temperature with agitation. The nitrocellulose membrane is washed three times for ten minutes each with TBST. […]
This observation was made by culturing SW480 cells with either 200, 400 or 600 μM exisulind or vehicle (0.1% DMSO). […] Immuno-reactive protein can be detected by Western blot. […]

[3] = target: T1, cGMP binding sites of GST-cGB-PDE5 fusion protein (Homo sapiens, UniProt O76074); experiment: cGMP binding assay; conditions: 3H-cGMP 2 μM
T1 construct: made in house; host or cells: E. coli BL21 (DE3)
T1 sequence (O76074 46-539 limits assumed): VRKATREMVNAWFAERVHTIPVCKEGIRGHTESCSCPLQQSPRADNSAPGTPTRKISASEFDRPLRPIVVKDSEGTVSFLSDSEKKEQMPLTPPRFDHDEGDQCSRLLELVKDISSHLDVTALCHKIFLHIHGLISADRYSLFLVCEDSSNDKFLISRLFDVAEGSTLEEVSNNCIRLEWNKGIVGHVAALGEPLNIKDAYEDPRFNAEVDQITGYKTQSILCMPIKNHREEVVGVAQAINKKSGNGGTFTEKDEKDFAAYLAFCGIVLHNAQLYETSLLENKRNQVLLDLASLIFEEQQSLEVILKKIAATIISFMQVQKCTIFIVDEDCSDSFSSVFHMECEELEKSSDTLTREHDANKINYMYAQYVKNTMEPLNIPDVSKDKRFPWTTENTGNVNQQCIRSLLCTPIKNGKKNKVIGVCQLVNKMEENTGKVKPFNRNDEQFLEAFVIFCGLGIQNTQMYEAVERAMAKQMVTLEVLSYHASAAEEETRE

[4] = system: Calu-6 adenocarcinoma cell line; experiment: Cell growth, alone and in combination with vinca alkaloid; assay type: cell-based, human
Procedure: Exisulind and Compound I were analyzed using two human lung cancer cell lines; H460, a large cell carcinoma with a doubling time of 16 hours, and Calu-6, an adenocarcinoma with a doubling time of 21 hours. Exisulind and Compound I were analyzed alone and in combination with the vinca alkaloid, Navelbine™ vinorelbine. The cytotoxic agents were administered for 1 hour, while exisulind and Compound I were administered for either 1 hour or given as a continuous exposure.
Cells were plated on day 0 and allowed to attach. On day 1, the cells were exposed to one of the cytotoxic agents dissolved in media pre-warmed to 37° C. and incubated at 37° C. for 1 hour. The cells were then washed twice and re-fed pre-warned media with or without either exisulind or Compound I and incubated for one hour at 37° C. After the one-hour incubation, the cells were washed twice, re-fed, and returned to the incubator; the continuous exposure cultures were not washed and re-fed. Appropriate controls were included for each condition. […] All data points were done in triplicate and the mean graphed as a percent of control growth.
Exisulind and Compound I were first dissolved in DMSO and brought to the desired concentrations by slowly adding warm media to the drug-DMSO solution to prevent precipitation.

[5] = Side effects of exisulind in patients; assay type: in vivo
From the text: This effect is reversible, and liver enzymes return to normal levels when the administered dose of exisulind returns to the traditionally recommended level or when treatment is discontinued. The most serious side effects of vinca alkaloid derivatives, on the other hand, are myelosuppressions.

## CC1=C(CC(=O)O)c2cc(F)ccc2/C1=C\c1ccc(S(C)(=O)=O)cc1 [Exisulind, 5-fluoro-2-methyl-1-(p-methylsulfonylbenzylidene)-3-indenylacetic acid]
[1]
  PKG activation relative to control: yielded PKG that was phosphorylated to a greater extent than the corresponding controls
[2]
  β-catenin and PKG levels by Western blot: causes the drop of β-catenin and the increase of PKG
[3]
  Competition with cGMP for binding of GST-cGB-PDE5: do not bind to the cGMP binding sites of PDE5
[4]; FIGS. 28-29, 32-33
  Lower concentration required on continuous exposure than 1-hour exposure for same effect: ~10 fold
[4]; Homo sapiens, Calu-6, 1 h, Calu-6, 1-hour exposure, 400 μg/ml, read-out: % of control growth
  activity at 400 µg/mL: 54%
[4]; both cell lines (Calu-6, H460), 1-hour and continuous exposures
  Effect when combined with vinca alkaloid: additive cytotoxic effect
[5]; 300-600 mg/day
  Side effects at recommended dose: no significant side effects
[5]; doses higher than the recommended therapeutic levels, reversible
  Side effects above recommended dose: can lead to elevated levels of liver enzymes
